Experimental data from patent US20110098492A1, “CLEANING COMPOSITIONS CONTAINING MID-RANGE ALKOXYLATES” (priority 2008, published 2011).

How the values were obtained:
[1] = Gel range in water at 23 C; type: physicochemical; design: key: L = Liquid; G = Gel; TL = Thick Liquid
Description: One way the industry expresses a tendency of a surfactant to cause gels is a “gel range.” A typical gel range describes a percentage of samples that form gels, out of a number of samples, each having increasing surfactant concentration. […] A sample forms a gel when it is non-pourable for at least five seconds at 23° centigrade (° C.) when its container is inverted 180° so the container's open spout or mouth faces down. For many applications, a surfactant ideally has no gel range.
D) Gel range: Ten surfactant solutions are made using 0%, 10%, 20%, 30%, 40%, 50%, 60%, 70%, 80%, 90% water. […] The test is run at 23 C.

[2] = Pour point test (ASTM D97); type: physicochemical
Description: C) Pour Point Test: This test is carried out according to the protocol of ASTM Test D97.

[3] = Surface tension and critical micelle concentration (Wilhelmy plate); type: physicochemical
Description: B) Surface Tension and Critical Micelle Concentration (CMC) Measurement. For this test the surface tension of a surfactant-water solution is measured while incrementally adding the surfactant to de-ionized water. Results are measured in terms of dyne/centimeters using a Wilhelmy plate. Results are recorded versus surfactant concentration. The Critical Micelle Concentration is the point at which an increase in surfactant concentration no longer results in a change in surface tension.

[4] = Ross-Miles foam height test (ASTM D1173); type: physicochemical
Description: A) Ross-Miles Foam Height Test: This test is carried out according to the protocol of ASTM […].

[5] = Cleaning of cross-linked triglycerides (Gardner scrubber, soiled vinyl tile); design: key to Arbitrary Gray Value: mean gray value of tile image (ImageJ); conditions: for Arbitrary Gray Value: 120 back-and-forth strokes, higher = better cleaning; for cleaning of cross-linked triglycerides (in words): aqueous solution, compared with NP-9 / APEs
Description: Test panels coated with mixtures of triglycerides and cross-linked triglycerides were prepared and evaluated using the following procedure. Cobalt Naphthenate was used as a catalyst to accelerate the oxidation of vegetable oil to give a hard varnish. Carbon black is added to the varnish to enable easy visual comparison of the ability to clean the cross-linked triglyceride from the surface.
Substrate Panels: White Vinyl Floor Tile: Tarket Corporation Azrock™ VS304-3 (6913) cut to 4¼×4¼ inch (to fit the Gardner Linear Motion Scrubber).
Soil Formulation: 100 grams Canola Oil (Food Grade, 100%, Kroger Co. Cincinnati, Ohio 45202); 2 grams Acetylene Carbon Black (Cat #39724, Alfa Aesar; Surface area=74 sq m/g); 20 grams drying agent: Cobalt Naphthenate Solution (Aldrich Cat #54,457-4, CAS #61789-51-3) (Comes as a 6% solution in petroleum solvent); Oven: Convection oven set at 160° F.
Scrubbing Tester: Gardco washability & Wear Tester; Linear Motion Test Equipment; Model D12-V Cat #WA-2164 (Paul N. Gardner Company, Inc. 316 N.E. First Street, Pompano, Beach, Fla. 33060.
Sponges: “Do-It” Cellulose Sponge, 1⅝ in thick, cut to 3″×4″. Manufactured by Bloch/New England for HWI, Fort Wayne, Ind. 46801;
Paint Brushes: Economy Chip Brush 1 Inch. www.lgsourcing.com Model #0106; Item #103407 obtained from Lowes, Inc. L. G. Sourcing, Inc. P.O. Box 1535 North Wilkseboro, N.C. 28659
Reflectance Meter: HunterLab ColorQuest XE
Prepare a stock solution by mixing 98 grams of canola oil (food grade) with 2.0 g acetylene-based carbon black (Cat #39724, Alfa Aesar; Surface area=74 sq m/g). Mix with a disperser at 2000 rpm for 15 min. (We used a Caframo Model BDC 3030 with a 0.50 dispersing blade).
Add 20.0 grams Cobalt Naphthenate Solution and mix well (by hand, using a glass stir rod).
Place 1.6 grams soil per 4×4 inch tile.
Paint to a thin film using a clean 1-inch economy brush. Use several strokes to get to an even coating. Use a clean, dry brush for each application. (After the application, each brush can be cleaned with acetone, dried, and then re-used).
Place in a convection oven set at 160 F for 16 hours. We place the panels in an oven at 4:00 p.m, and then remove the panels at 8:00 a.m. the next morning. Let the panels cool for 1 hour.
Use the panels within 10 days
Place a panel in the Gardner Scrubber
[…] (We use 5.0 grams surfactant diluted to 500 mL water).
Prepare a sponge by rinsing several times in cold tap water. Completely squeeze out the sponge by hand.
After each test, rinse out the sponge 15-20 times (by repeated sorption and squeezing) until there is no noticeable surfactant solution left (usually indicated by a lack of foam).
Pour 500 mL of surfactant solution into a beaker
Place the sponge into the beaker—allowing it to soak up as much surfactant as possible.
Place the sponge into the Gardner Scrubber.
Pour the remaining liquid (approx 400 mL) over the test panel in the scrubber. There should be enough liquid to just cover the test panel.
Program the scrubber to perform 120 back-and-forth strokes (for a total of 240 linear strokes). We define each back-and-forth stroke as “1 stroke”
Remove the panel rinse with tap water
Clean the Gardner scrubber by rinsing with tap water.
Clean the sponge by squeezing it out under tap water 20-30 times until clean.
Remove excess water from the sponge by squeezing as much liquid out as possible.
After the panel is dry, either take pictures (for visual comparison of cleaning) or measure the reflectance using the Xyy mode of a Hunter Colorimeter. Alternatively, the mean gray value can be obtained by taking a picture of the tiles and processing computer image with ImageJ™ software, which is distributed freely by the National Institute of Health (nih.gov).

Daphna magna = assay: 48-hour acute toxicity to Daphnia; type: in vivo
Excerpt: The study procedures and test methods were based on the recommendations of the following guidelines: […]

Cloud point = type: physicochemical
Desmondesmus subspicatus = assay: Fresh water algal growth inhibition test (OECD 201); type: cell-based; conditions: growth rate
Excerpt: Organization for Economic Cooperation and Development (OECD): OECD Guidelines for the Testing of Chemicals, “Freshwater Alga and Cyanobacteria, Growth Inhibition Test”, Procedure 201, adopted 23 Mar. 2006; European Economic Community (EEC): […] OECD Guidelines for the Testing of Chemicals, “Freshwater Alga and Cyanobacteria, Growth Inhibition Test”, Procedure 201, adopted 23 Mar. 2006; European Economic Community (EEC): […]

Sicklepod = assay: Greenhouse herbicide adjuvant efficacy with glyphosate; type: in vivo; conditions: adjuvant 0.25% v/v in spray, visual injury at 18 DAA
Description: Efficacy of Examples 7 and 8 as adjuvants in formulated herbicides is compared to commercially available herbicide packages. Greenhouse field testing is completed. A 480 g ae/L (acid equivalent per liter) formulation of glyphosate isopropylamine with no adjuvants is added to spray vials. These aliquots are diluted to a final volume of 60 ml with tap water, and appropriate amounts of adjuvants are added to the spray solution. The Examples 7 and 8 series are tested at 0.25% v/v in the final spray solution. Treatment rates are: 200, 400, and 600 g ae/ha (“ha” means hectare) and each treatment is replicated three times. Treatments are applied with a tracksprayer. The sprayer utilizes an 8002E spray nozzle, spray pressure of 262 kPa pressure and speed of 2.2 mph to deliver 140 L/Ha. The nozzle height is 46 cm above the pots. Percent visual injury assessments are made at 18 DAA (days after application) on a scale of 0 to 100% as compared to the untreated control plants (where 0 is equal to no injury and 100 is equal to complete death of the plant). Results are shown in Table 10 as % Control of Sicklepod with Glyphosate compared to commercial herbicides.

For 2EH(PO)9(EO)9 [Example 4], the “Gel Range, Percent Surfactant in Water at 23 C.” value (“Gel Range, Percent Surfactant” for short) ([1]; 10% surfactant in water) was “L”, the “Gel Range, Percent Surfactant” value ([1]; 20% surfactant in water) was “L” and the “Gel Range, Percent Surfactant” value ([1]; 30% surfactant in water) was “L”. The “Gel Range, Percent Surfactant” value ([1]; 40% surfactant in water) was “TL”, the “Gel Range, Percent Surfactant” value ([1]; 50% surfactant in water) was “G” and the “Gel Range, Percent Surfactant” value ([1]; 60% surfactant in water) was “G”. For the same substance, the “Gel Range, Percent Surfactant” value ([1]; 70% surfactant in water) was “G”, the “Gel Range, Percent Surfactant” value ([1]; 80% surfactant in water) was “G” and the “Gel Range, Percent Surfactant” value ([1]; 90% surfactant in water) was “L”. For the same substance, the “Pour Point” value [2] was 37 ° F, the “Surface Tension” value ([3]; 0.1 wt % in water) was 30 dyne/centimeters and the Critical Micelle Concentration ([3]; in de-ionized water) was 400 ppm. For the same substance, the “Ross Miles Foam Height, millimeters, 5 Minutes” value ([4]; 5 Minutes) was 5 millimeters and the “Ross Miles Foam Height, millimeters, Initial” value ([4]; Initial (0 sec)) was 50 millimeters.
For C12-14(EO)5 [reference compound], the “Arbitrary Gray Value” ([5]; 1% by weight in water) was 68.
For C9(PO)4(EO)8 [Example 10], the “48-hour Acute Toxicity to Daphna magna (EC50-50 hour)” value (“48-hour Acute Toxicity” below) (Daphna magna) was 29.2 µg/mL, the cloud point (Cloud point) was 55.3 C and the “Fresh Water algal growth inhibition test with Desmondesmus subspicatus ErC50/0-3” value (“Fresh Water algal growth inhibition test” below) (Desmondesmus subspicatus) was 26 mg/L.
For 2EH(PO)5(EO)9 [Example 8], the “Arbitrary Gray Value” ([5]; 1% by weight in water) was 128, the “48-hour Acute Toxicity” value (Daphna magna) was greater than 100 µg/mL and the “% Control of Sicklepod with Glyphosate” value (Sicklepod; 200 G/ha glyphosate) was 31.7%. The “% Control of Sicklepod with Glyphosate” value (Sicklepod; 400 G/ha glyphosate) was 73.3%, the “% Control of Sicklepod with Glyphosate” value (Sicklepod; 600 G/ha glyphosate) was 75.0% and the “Fresh Water algal growth inhibition test” value (Desmondesmus subspicatus) was 97.7 mg/L.
In the case of C8-16(PO)2.5(EO)5 [reference compound], the “Arbitrary Gray Value” ([5]; 0.5% by weight in water) is reported as 48.
For 2EH(PO)5(EO)6 [Example 7], the “Arbitrary Gray Value” ([5]; 0.5% by weight in water) was 106, the “Arbitrary Gray Value” ([5]; 1% by weight in water) was 179 and the “cleaning of cross-linked triglycerides (in words)” value [5] was “performs as well as NP-9”. For the same substance, the “cleaning of cross-linked triglycerides (in words)” value ([5]; listed as 2EH(PO)5(EO)6) was “performs as well and NP-9”, the “% Control of Sicklepod with Glyphosate” value (Sicklepod; 200 G/ha glyphosate) was 66.7% and the “% Control of Sicklepod with Glyphosate” value (Sicklepod; 400 G/ha glyphosate) was 81.7%. The “% Control of Sicklepod with Glyphosate” value (Sicklepod; 600 G/ha glyphosate) was 98.3%.
With C9(BO)1(EO)7 [Example 9] the “Arbitrary Gray Value” ([5]; 1% by weight in water) was 121, the “48-hour Acute Toxicity” value (Daphna magna) was 6.2 µg/mL and the cloud point (Cloud point) was 53.9 C. The “Fresh Water algal growth inhibition test” value (Desmondesmus subspicatus) was 21 mg/L.
